{"source": "patent US20070259055A1", "about": "“Method of deactivating dust mite allergens” (priority 2000, published 2007)", "target": "T1, house dust mite (Dermatophagoides pteronyssinus) allergen (Der-pl) (Dermatophagoides pteronyssinus, UniProt P08176)", "T1 construct": "Test dust had been obtained from household vacuum cleaner bags; from tissue; host or cells: house dust (British; vacuum cleaner bags), sieved fraction smaller than 53 microns", "T1 sequence (P08176 99-320)": "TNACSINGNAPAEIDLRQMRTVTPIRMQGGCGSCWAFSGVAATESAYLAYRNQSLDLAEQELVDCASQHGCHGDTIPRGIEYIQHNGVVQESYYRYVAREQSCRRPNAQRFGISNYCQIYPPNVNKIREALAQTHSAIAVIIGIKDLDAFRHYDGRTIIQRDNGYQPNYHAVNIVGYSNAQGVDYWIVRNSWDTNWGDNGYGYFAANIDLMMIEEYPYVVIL", "test": "Example 3: test liquid sprayed onto dust in petri dish, Der-pl ELISA", "type": "biochemical", "protocol": "Dust was collected from vacuum cleaner bags and passed through a series of sieves down to 53 microns. Clean petri dishes were labeled with the chemical to be tested and lined with filter paper. 0.3 g of dust was added to each dish and spread evenly over the filter paper. 0.1 g of dust was then removed from the filter paper for a control sample. The remaining dust was then redistributed evenly over the filter paper. 2.4 g+/−0.2 g of test chemical was sprayed onto the dust sample. The dust sample was left open to the air until the filter paper was dry. The dust was collected into eppendorfs and the weight of dust recovered was measured. 1 ml of 1% Bovine Serum Albumin-Phosphate Buffered Saline-Tween (BSA-PBS-T) was added to the control samples. 1 ml of 5% BSA-PBS-T was added to the test samples. The samples were left overnight in the refrigerator and then centrifuged for 5 minutes at 13,000 rpm. The supernatant was pipetted into an eppendorf for assay by Der-pl ELISA.\nThe test liquids were: • Distilled water • 2% Tea Tree Oil in distilled water (plus 0.1% Tween) • 2% Citronella Oil in distilled water (plus 0.10% Tween) • 1% Thymol in distilled water (plus 0.8% Tween) • 2% Hinoki Oil in distilled water (plus 0.1% Tween) • 2% Tannic Acid\nFive replicates were completed for each test liquid. The allergen content of the control for each replicate was compared with the test sample allergen. The percentage reductions in allergen between the control and the test were determined for each replicate."}
{"smiles": "Cc1ccc(C(C)C)c(O)c1", "note": "[Thymol, 6-isopropyl-m-cresol]", "values": [{"measurement": "allergen reduction more than the water alone tests", "setting": "test liquid sprayed onto dust (2% Tea Tree Oil or 1% Thymol in distilled water plus Tween), average of five replicates, water alone 34.2%", "value": 23.6, "unit": "%"}, {"measurement": "significance of allergen reduction versus water tests", "setting": "test liquid sprayed onto dust, t-test versus water", "value": "significant"}]}
{"smiles": "O=C(OC[C@H]1O[C@@H](OC(=O)c2cc(O)c(O)c(OC(=O)c3cc(O)c(O)c(O)c3)c2)[C@H](OC(=O)c2cc(O)c(O)c(OC(=O)c3cc(O)c(O)c(O)c3)c2)[C@@H](OC(=O)c2cc(O)c(O)c(OC(=O)c3cc(O)c(O)c(O)c3)c2)[C@@H]1OC(=O)c1cc(O)c(O)c(OC(=O)c2cc(O)c(O)c(O)c2)c1)c1cc(O)c(O)c(OC(=O)c2cc(O)c(O)c(O)c2)c1", "note": "[tannic acid]", "values": [{"measurement": "average allergen reduction", "setting": "2% Tannic Acid sprayed onto dust, positive control, five replicates", "value": 99.15, "unit": "%"}]}
